Measured values published in patent US20020132319A1, “Peptide mutant of human ERAB or HADH2, its X-ray crystal structure, and materials and method for identification of inhibitors thereof” (priority 2000, published 2002).
Entries after “also recorded” stand apart in the source; their conditions may differ.

Experiments:
ERAB or HADH2 = target: T1, ERAB or HADH2 (Homo sapiens, UniProt Q99714); assay: Spectrophotometric ERAB or HADH2 inhibition assay (NADH, acetoacetyl-CoA as substrate); assay type: biochemical
T1 construct: made in house; host or cells: E. coli (plasmid pMGH4)
T1 sequence (Q99714 1-261): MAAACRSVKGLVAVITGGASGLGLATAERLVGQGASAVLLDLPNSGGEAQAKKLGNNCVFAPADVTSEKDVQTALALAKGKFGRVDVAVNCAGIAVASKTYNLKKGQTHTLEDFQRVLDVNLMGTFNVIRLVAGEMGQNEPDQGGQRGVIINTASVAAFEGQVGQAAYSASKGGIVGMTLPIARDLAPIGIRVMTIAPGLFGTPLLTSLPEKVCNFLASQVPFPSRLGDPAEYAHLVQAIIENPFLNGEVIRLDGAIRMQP
Method: The IC50 value for Compound I was determined spectrophotometrically by monitoring the […] of NADH to NAD^+ with acetoacetyl-CoA as substrate. Enzyme (2.5 nM) was preincubated with inhibitor for 400 seconds at 30° C. in the presence of 36 uM NADH, 25 mM MOPS, pH 7.5, 250 mM NaCl, 2% (v/v) DMSO, and 2.5 mM TCEP. The reaction was initiated by addition of substrate (38 μM). Reduction of NADH was monitored at […]. The IC50 value was determined by non-linear regression analysis using KaleidaGraph (obtained from Synergy Software, Reading, Pa.).

wild-type ERAB or HADH2 [1] = target: T2, wild-type ERAB or HADH2 (Homo sapiens, UniProt Q99714); assay: Isothermal titration calorimetry, inhibitor binding experiments
T2 construct: made in house; host or cells: E. coli (plasmid pMGH4; spontaneous mutant of strain BL21(DE3), 'B121 (DE3)' [sic])
T2 sequence (Q99714 1-261): T1 sequence (Q99714 1-261)
Method: FIG. 5 is a plot of integrated-binding data obtained for a calorimetric titration of wild-type ERAB or HADH2 into Compound I in the presence and absence of cofactor. Wild-type ERAB or HADH2 (415 μM) was titrated into 20 μM inhibitor in the presence and absence of 20 μM cofactor at 15° C. The closed symbols represent the integrated-data points for 10 μL injections of ERAB or HADH2 into inhibitor in the absence of cofactor (♦); in the presence of NAD^+ (●); and in the presence of NADH (▪). The open symbols represent the integrated data points for the corresponding control titrations of ERAB or HADH2 into buffer (Δ); in the presence of NAD^+ (∘); and in the presence of NADH (□). Lines connecting the data points have been added for visual clarity.
(§1) Titrations described herein were performed with an MCS microcalorimeter (obtained from MicroCal, Inc., Northampton, […].).
(§2) For the inhibitor binding experiments, the titrations were performed in 25 mM MOPS (pH 7.5), 125 mM NaCl, 10% glycerol, 2.0% DMSO, 0.5 mM TCEP (Tri(2-carboxyethyl)phosphine), 0.1 mM EDTA at 15° C. The syringe contained 415 μM wild-type ERAB or HADH2 and the cell contained either 20 μM inhibitor, 20 μM cofactor, or 20 μM each of inhibitor and cofactor. After a preliminary 20 μL injection, 12 injections of 10.0 μL each were made at 4 minute intervals. Dilution control titrations of buffer into buffer, protein into buffer, and buffer into inhibitor, cofactor and inhibitor/cofactor mixture were also performed. For the cofactor binding experiments, the titrations were performed in 50 mM MOPS (3-(N-morpholino) propanesulfonic acid, pH 7.5), 250 mM NaCl, 10% glycerol, 2.0% DMSO, 10 mM TCEP at 15° C.

[2] = target: E. coli 17β-hydroxysteroid dehydrogenase (Escherichia coli, UniProt P0AET8); assay: Inhibition of related SDR family member (E. coli enzyme); assay type: biochemical; conditions: at concentrations as high as 100 μM
[3] = target: Streptomycetes hydrogenans 3α-20β- hydroxysteroid dehydrogenase (Streptomyces exfoliatus, UniProt P19992); assay: Inhibition of related SDR family member (Streptomyces enzyme); assay type: biochemical; conditions: at concentrations as high as 100 μM
wild-type ERAB or HADH2 [4] = target: T2, wild-type ERAB or HADH2; assay: Isothermal titration calorimetry, cofactor binding experiments; conditions: 2.68 mM cofactor titrated into 127 μM wild-type ERAB or HADH2, 15° C.; read-out: Kd for NAD+
Method: as §1, §2
For the NADH titration, the syringe contained 700 μM cofactor and the cell contained 35 μM wild type ERAB or HADH2. For the NAD^+ titration, the syringe contained 2.68 mM cofactor and the cell contained 127 μM wild-type ERAB or HADH2.

E. coli 17β-hydroxysteroid dehydrogenase, sequence (P0AET8 whole entry): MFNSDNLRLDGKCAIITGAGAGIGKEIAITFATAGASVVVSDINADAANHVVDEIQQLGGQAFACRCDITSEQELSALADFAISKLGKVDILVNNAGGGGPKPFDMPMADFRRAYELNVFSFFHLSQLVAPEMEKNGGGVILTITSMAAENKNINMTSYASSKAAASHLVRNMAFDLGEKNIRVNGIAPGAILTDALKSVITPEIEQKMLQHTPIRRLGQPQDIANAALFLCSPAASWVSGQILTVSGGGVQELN
Streptomycetes hydrogenans 3α-20β- hydroxysteroid dehydrogenase, sequence (P19992 whole entry): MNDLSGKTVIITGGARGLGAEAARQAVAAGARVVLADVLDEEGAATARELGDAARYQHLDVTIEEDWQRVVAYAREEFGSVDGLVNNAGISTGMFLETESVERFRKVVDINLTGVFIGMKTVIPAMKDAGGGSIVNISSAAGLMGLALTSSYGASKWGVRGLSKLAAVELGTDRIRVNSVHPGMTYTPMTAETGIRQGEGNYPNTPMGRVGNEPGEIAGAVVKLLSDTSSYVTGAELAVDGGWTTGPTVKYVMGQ

## O=C(C(c1ccccc1)n1cnc2[nH]ncc2c1=S)N1CCCCCC1 (racemic) [Compound I, 1-azepan-1-yl-2-phenyl-2-(4-thioxo-1,4-dihydro-pyrazolo[3,4-d]pyrimidin-5-yl)-ethanone]
ERAB or HADH2; Compound I made according to Scheme 1
  IC50 against ERAB: 0.088 µM
ERAB or HADH2; Compound I made according to Scheme 2, racemic mixture
  average IC50 against ERAB or HADH2: 0.092 ± 0.005 µM
wild-type ERAB or HADH2 [1]; ERAB 415 μM titrated into 20 μM inhibitor alone, 15° C.
  ITC binding to ERAB or HADH2 in the absence of cofactor: binds weakly; also recorded: No binding was detected
wild-type ERAB or HADH2 [1]; ERAB titrated into equimolar 20 μM inhibitor and NAD+, 15° C.
  ITC binding to ERAB or HADH2 in the presence of NAD+: tight-binding curve
wild-type ERAB or HADH2 [1]; ERAB titrated into equimolar 20 μM inhibitor and NADH, 15° C.
  ITC binding to ERAB or HADH2 in the presence of NADH: binds weakly
wild-type ERAB or HADH2 [1]; with NAD+ versus absence of NAD+
  binding to ERAB or HADH2 more potent with NAD+ than in the absence of NAD+: approximately 1000 fold
[2]
  inhibition of E. coli 17β-hydroxysteroid dehydrogenase: no detectable inhibition
[3]
  inhibition of Streptomycetes hydrogenans 3α-20β-hydroxysteroid dehydrogenase: no detectable inhibition

## NC(=O)c1ccc[n+]([C@@H]2O[C@H](COP(=O)([O-])OP(=O)(O)OC[C@H]3O[C@@H](n4cnc5c(N)ncnc54)[C@H](O)[C@@H]3O)[C@@H](O)[C@H]2O)c1 [NAD^+, reference compound]
wild-type ERAB or HADH2 [1]; ERAB 415 μM titrated into 20 μM NAD+ alone, 15° C.
  ITC binding when ERAB or HADH2 titrated into cofactor alone: No binding was detected
wild-type ERAB or HADH2 [4]
  Kd: ~500 µM
